# Test results reported in patent US20150359798A1, “PIPERAZINYL DERIVATIVE REDUCES HIGH-FAT DIET-INDUCED ACCUMULATION OF FAT IN THE LIVERS, […]” (priority 2011, published 2015).
# Tests used:
# [1] = biological target: T1, Human recombinant HMG CoA reductase (Homo sapiens, UniProt P04035); assay: HMG CoA reductase activity, [14C]mevalonate formation; format: biochemical; settings: 10 μM
# T1 construct: purchased Sigma-Aldrich (printed 'Sigma-Adrich') H7039; host or cells: E. coli
# Experimental: Human recombinant HMG CoA reductase expressed in E. coli (H7039, Sigma-Adrich, Mo, U.S.A.) was used. Human recombinant HMG-CoA reductase, examined by SDS-PAGE to be ≧90% in purity, 2-8 units/mg protein in activity and ˜76 kDa in molecular weight (H7039, Sigma-Adrich, St. Louis, Mo. U.S.A.), was used for determining the formation of [^14C]mevalonate. […] The reaction was initiated by the addition of 2.5 μM [^14C]HMG-CoA for another 20 minutes incubation period and terminated by further addition of 1 N HCl. An aliquot was removed by column and counted to determine the amount of [^14C]mevalonate formed (Ricera® Co. Ltd., Taipei, Taiwan).
# [2] = system: MMP-9; assay: IHC staining of MMP-9 in steatohepatitis liver; format: in vivo, mice; settings: treatment and protection groups
# Experimental: (§1) In the 14-week experiment, mice were fed a HFD from week 1 to week 14. During the 3 month experiments, KMUP-1 HCl (2.5 mg) was added to 200 ml tap water and) and drink for 14 weeks or for the last 6 weeks on mice or obese mice fed HFD, separately. 5 mice had free access to drinking water from week 1 to week 14 (protective group) or from week 8 to week 14 (treatment group). Tap water was used to normalize mineral nutrition (Scheme A).
# (§2) For IHC of MMP-9/TNFα, HSL/p-HSL/ATGL and eNOS/IL-10, antigen retrieval of de-paraffinated sections was performed in Dako target retrieval solution, pH 9.0, in a vegetable steamer followed by the quenching of endogenous peroxidase activity with 3.0% H2O2 in methanol. Sections were then incubated with specific primary antibodies overnight at 4° C. in a humidified chamber. The antibodies used included rabbit polyclonal anti-eNOS (1:50 dilution) (Abcam, Cambridge, UK) or rabbit monoclonal anti-cleaved caspase-3 (1:50 dilution) (Cell Signaling, USA). The sections were then examined using a DAKO REAL EnVision™ Detection System kit (DAKO, Carpinteria, Calif.) and counterstained with hematoxylin. Images were obtained through a Nikon Eclipse TE200-S microscope.
# [3] = system: PPARγ; assay: PPARγ expression in HepG2 cells; format: cell-based
# Experimental: (§3) HepG2 cells were treated with various concentrations of drugs for 24 hours. Reactions were terminated by washing twice with cold PBS, and the cells were then harvested, Proteins in the whole-cell lysate were homogenized in an ice-cold lysis buffer and a protease inhibitor (Sigma-Aldrich, St. Louis, Mo., U.S.A.). The homogenate was centrifuged at 90, 000 g for 15 minutes at 4° C., and supernatant was recovered as the total cellular protein. Cytosolic and membrane fractions of HepG2 cells were prepared using a. CNM (Cytosol Nuclear Membrane) compartment protein extraction kit (BioChain Institute Inc., Hayward, Calif., U.S.A.) according to the manufacturer's instructions. All of the fractionated protein solutions were stored at −80° C. until analysis. To measure the expression levels of proteins by drugs, the total cell protein was extracted after incubation with treatments for 24 hours and then Western blotting analysis was performed as described previously.
# [4] = system: ABCA1; assay: ABCA1 expression in liver of HFD mice (8 weeks); format: in vivo; settings: animals treated with HFD
# [5] = system: PKA; assay: Hepatic PKA expression (14-week experiment); format: in vivo, mice; settings: drinking KMUP-1; protection and treatment groups
# [6] = system: RhoA; assay: RhoA translocation from cytosol to membranes in HepG2 cells; format: cell-based
# Experimental: as §3
# [7] = system: PPAR-γ; assay: Table 3 PPAR-γ (% of control); format: cell-based; settings: control group = 100 (%)
# [8] = system: LXRα; assay: LXRα expression in HepG2 cells; format: cell-based; settings: HepG2, 10^−9-10^−5 M
# Experimental: HepG2 cells were treated with various concentrations of drugs for 24 hours. […] All of the fractionated protein solutions were stored at −80° C. until analysis. To measure the expression levels of proteins by drugs, the total cell protein was extracted after incubation with treatments for 24 hours and then Western blotting analysis was performed as described previously.
# [9] = system: PPARγ; assay: PPARγ expression in liver of HFD mice (8 weeks); format: in vivo; settings: animals treated with HFD
# Experimental: In the 8 week experiment, C57BL/6J male mice (21-22 g), after fasting, were fed a HFD as a model of hyperlipidemia for 8 weeks. During the 2 month experiments, mice fasted for one night before the experiment was changed from a standard diet (STD) to a HFD and then the mice were randomly divided into 5 groups, including 2 control and 3 treatment groups. Six mice were used in each group. […] Liver from the protection group supplemented with KMUP-1 HCl (1 mg/kg/day) were used to determine the HMG CoA reductase expression.
# For the expression of SR-B1, HMGR, PPARγ and ROCK isolated liver tissues were cut into small chips and placed into an extraction buffer (Tris 10 mM, pH 7.0, NaCl 140 mM, PMSF 2 mM, DTT 5 mM, NP-40 0.5%, pepstatin A 0.05 mM and leupeptin 0.2 mM) for hepatic protein extraction, and centrifuged at 20,000 g for 30 minutes. The obtained protein extract was boiled to a ratio of 4:1 with a sample buffer (Tris 100 mM, pH 6.8, glycerol 20%, SDS 4% and bromophenol blue 0.2%). Electrophoresis was performed using 10% SDS-polyacrylamide gel (1 hour, 100 V, 40 mA, 20 μg protein per lane).
# Separated proteins, after 3 repeated centrifugations to discard up-layer tissue lipid inpurity, were transferred to PVDF membranes treated with 5% fat-free milk powder to block the nonspecific IgGs (90 minutes, 100 V) and incubated for 1 hour with specific protein antibody. […]
# [10] = system: p-HSL; assay: IHC staining of p-HSL in steatohepatitis liver; format: in vivo, mice; settings: treatment and protection groups
# Experimental: as §1, §2
# [11] = system: eNOS; assay: IHC staining of eNOS in epididymal fat pads; format: in vivo, mice; settings: protection, 2.5 mg/kg/day
# Experimental: as §2
# [12] = system: IL-10; assay: IHC staining of IL-10 in epididymal fat pads; format: in vivo, mice; settings: protection, 2.5 mg/kg/day
# Experimental: as §2
# [13] = system: ApoA-I; assay: ApoA-I expression in HepG2 cells; format: cell-based; settings: HepG2, 10^−9-10^−5 M
# Experimental: as §3
# [14] = system: Rho-kinase; assay: Table 3 Rho-kinase (% of control); format: cell-based; settings: control group = 100 (%)
# [15] = system: ABCA1; assay: ABCA1 expression in HepG2 cells; format: cell-based
# Experimental: as §3
# [16] = HepG2, KMUP-1 10^−9-10^−5 M with FPP or GGPP
# [17] = HepG2, simvastatin, KMUP-1, Y27632 10^−5M, C3 exoenzyme
# T1 sequence (P04035 426-888 limits assumed): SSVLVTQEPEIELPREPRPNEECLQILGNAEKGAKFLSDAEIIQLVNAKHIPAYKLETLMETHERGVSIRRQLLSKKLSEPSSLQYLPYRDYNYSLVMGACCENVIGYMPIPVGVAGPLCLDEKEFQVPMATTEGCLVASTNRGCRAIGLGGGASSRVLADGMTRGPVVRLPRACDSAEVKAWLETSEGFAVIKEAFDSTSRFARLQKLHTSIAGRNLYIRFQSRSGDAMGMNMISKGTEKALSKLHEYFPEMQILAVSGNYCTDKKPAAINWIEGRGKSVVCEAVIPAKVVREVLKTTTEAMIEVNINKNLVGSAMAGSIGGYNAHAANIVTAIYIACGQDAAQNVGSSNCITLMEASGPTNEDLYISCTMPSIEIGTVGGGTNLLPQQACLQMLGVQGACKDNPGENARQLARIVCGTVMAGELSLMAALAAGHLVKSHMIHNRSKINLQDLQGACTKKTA
structure (smiles),measurement,setting,value
"Cn1c(=O)c2c(ncn2CCN2CCN(c3ccccc3Cl)CC2)n(C)c1=O [KMUP-1, 7-[2-[4-(2-chlorophenyl)piperazinyl]ethyl]-1,3-dimethyl xanthine]",[14C]mevalonate formation,[1],could not reduce
same,"antibody response to MMP-9 (IHC, liver)",[2],shaded by the treatment and almost disappeared in the protection group
same,increase of PPARγ,[3]; HepG2,2-3 fold
same,expression of PPARγ,"[3]; HepG2, 10^−9-10^−5 M",increased
same,FPP- or GGPP-suppressed expression of PPARγ,[3]; [16],reversed
same,PPARγ expression (FIG. 24C),[3]; [17],increased
same,ABCA1 in liver,[4],activated
same,hepatic PKA expression,[5],promote
same,translocation of RhoA from cytosol to membranes,[6],concentration-dependently inhibited
same,PPAR-γ,[7]; 0.1 μM,123.5 ± 17.3%
same,PPAR-γ,[7]; 1.0 μM,135.6 ± 14.5%
same,PPAR-γ,[7]; 10 μM,142.6 ± 15.4%
same,LXRα expression,[8],concentration-dependently increased
same,PPARγ in liver,[9],activated
same,"p-HSL (IHC, liver)",[10],activation
same,IHC staining of eNOS in epididymal fat pads,[11],inhibited
same,IHC staining of IL-10 in epididymal fat pads,[12],increased
same,ApoA-I expression,[13],concentration-dependently increased
same,Rho-kinase,[14]; 0.1 μM,82.8 ± 7.8%
same,Rho-kinase,[14]; 1.0 μM,78.4 ± 6.9%
same,Rho-kinase,[14]; 10 μM,75.8 ± 6.4%
same,expression of ABCA1,"[15]; HepG2, 10^−9-10^−5 M",increased
same,FPP- or GGPP-suppressed expression of ABCA1,[15]; [16],reversed
same,ABCA1 expression (FIG. 24D),[15]; [17],increased
